This note sets out measurements from ChEMBL document CHEMBL1201862, “PubChem BioAssay data set” (2004).

For assay [1], the target named is T1, Heat shock factor protein 1 (Mus musculus, UniProt P38532).
T1 sequence (P38532 whole entry): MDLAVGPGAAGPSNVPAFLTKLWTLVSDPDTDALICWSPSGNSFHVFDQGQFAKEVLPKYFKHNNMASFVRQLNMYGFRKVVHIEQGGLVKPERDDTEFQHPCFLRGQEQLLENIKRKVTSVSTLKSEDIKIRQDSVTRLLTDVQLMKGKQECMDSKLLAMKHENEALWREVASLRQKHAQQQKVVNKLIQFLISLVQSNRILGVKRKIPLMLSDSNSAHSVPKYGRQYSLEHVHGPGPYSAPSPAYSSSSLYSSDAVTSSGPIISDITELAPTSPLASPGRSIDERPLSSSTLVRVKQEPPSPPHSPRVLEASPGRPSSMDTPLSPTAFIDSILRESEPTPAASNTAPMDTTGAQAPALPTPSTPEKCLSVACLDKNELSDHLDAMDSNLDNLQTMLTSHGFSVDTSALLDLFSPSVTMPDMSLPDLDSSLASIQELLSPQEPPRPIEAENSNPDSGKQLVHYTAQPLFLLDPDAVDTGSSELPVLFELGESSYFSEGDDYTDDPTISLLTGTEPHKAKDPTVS
Put plainly: enhancement of HSF1-driven luciferase signal – cell-based, NIH3T3, luminescence, dose retest, confirmation (AID 435004).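 Further: stress induced by proteasome inhibitor MG132 added 30 min after compound; luciferase reporter driven by HSF1 response element in NIH3T3 cells; actives raise luminescence as potentiators of the MG132 stress response.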 The format is functional.

Assay [2] deals with T1, Heat shock factor protein 1. The assay can be described thus: decrease of HSF1-responsive luciferase luminescence – cell-based, NIH3T3, dose retest, confirmation (AID 2382).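 Further: NIH3T3 fibroblasts with HSF1-driven luciferase reporter stressed by proteasome inhibitor MG132; luminescence from HSF1-driven luciferase expression after 8 hours of MG132 stress.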 The format is functional.
The nature of assay [3]: Trypanosoma cruzi growth suppression in host cells – NIH3T3 host cells, beta-gal luminescence, confirmation (AID 2044).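 Further: intracellular parasites grown in NIH/3T3 mouse fibroblasts as host cells; luminescent beta-galactosidase reporter signal from transgenic T. cruzi replicating inside host cells; inhibitors lower the luminescence signal.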 It is filed as functional, cell-based.
Assay [4] in a line: NIH3T3 cell viability loss – ATP luminescence, mouse fibroblasts, counter-screen, dose response (AID 2010).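 Further: cells exposed to compound for about 90 hours before reading.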 The format is functional, cell-based.
In assay [5] the test system is Streptococcus sp. 'group A'. Put plainly: Streptococcus pyogenes SK(-)GAS viability under kanamycin – luminescence, BacTiterGlo, confirmation, counter-screen for streptokinase expression inhibitor project, dose response (AID 1900). It is filed as functional, organism-based. (The purpose of a counterscreen is to sort out artefacts and off-target activity.)
The next assay concerns Streptococcus. Put plainly: GAS UMAA2166 growth inhibition – luminescence, BacTiterGlo, counter-screen for streptokinase expression inhibitor project, dose response (AID 1915).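 Further: potency for reduction of bacterial viability or growth.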 The format is functional, organism-based.

Structures are written as SMILES. Active and inactive are the calls of the source. No stated cut-off is given here; in the data, actives have a measured EC50 and inactives only a lower limit.

For orientation: EC50 means the concentration giving half of the maximal effect. In the case of `Cc1ccnc(NC(=O)c2cc3cc(F)ccc3s2)c1`, the EC50 in assay [1] was > 260 µM (inactive).

`CCc1cccc(NC(=O)C2CCCN(S(=O)(=O)c3cccs3)C2)c1` (stereo unspecified): in assay [2], the EC50 was > 195 µM (not active). Take `O=C(Nc1cccc(S(=O)(=O)N2CCOCC2)c1)c1cn(-c2ccccc2)nc1-c1ccc(F)cc1`: the EC50 is 2.49 µM (active) in assay [3] and > 60 µM (inconclusive) in assay [4]. `O=C(NCC1CCCN(Cc2ccc3nonc3c2)C1)c1cccc(C(F)(F)F)c1` (stereo unspecified): the EC50 is 0.771 µM (active) in assay [3] and > 60 µM (not active) in assay [4]. As for `COc1ccc(-c2nc(C#N)c(NCc3cccnc3)o2)cc1OC`, the EC50 in assay [3] is 1.8 µM (active); in assay [4], > 60 µM (not active).

Regarding `CCOc1cc(CNCC2CCCN2CC)cc(Cl)c1OC` (stereo unspecified), the EC50 in assay [2] was 63.1 µM (active). `Cc1ccc(C(=O)Cn2nnc(-c3ccccc3-n3cnnn3)n2)cc1`: in assay [1], the EC50 was > 260 µM (inactive).

In the case of `CCC12CN3CC(CC)(CN(C1)C3c1ccc([N+](=O)[O-])o1)C2=O` (stereo unspecified), the results for the EC50 in assay [3] and in assay [4] were 0.85 µM (active) and > 30 µM (not active), respectively. In the case of `Cc1c(Cl)cccc1NC(=O)Nc1cnccn1`, the EC50 in assay [2] is listed as > 195 µM (not active). `O=C(NCCc1nc2ccccc2[nH]1)/C(=C/c1ccc(F)cc1)NC(=O)c1ccco1`: the EC50 in assay [1] is > 260 µM (inactive). For `O=C(COC(=O)COc1cccc(Br)c1)Nc1c(Cl)cccc1Cl`, in assay [1], the EC50 is > 260 µM (inactive). For `O=[N+]([O-])c1cc(Br)c(OCc2nnc(-c3ccccc3)o2)c(Br)c1`, the figures for the EC50 in assay [3] and in assay [4] were 1.75 µM (active) and > 60 µM (not active), respectively. On to `Cc1cc(Cn2ccnc2)c(C)cc1Cn1ccnc1`, for which the EC50 in assay [3] is 2.45 µM (active); in assay [4], > 60 µM (not active). Turning to `Cc1ccc(C(NC(=O)/C=C\c2ccc3c(c2)OCO3)C(=O)Nc2ccc3c(c2)OCO3)cc1` (stereo unspecified), the EC50 in assay [1] was > 260 µM (inactive). Turning to `COC(=O)CNC(c1ccccc1)c1cc(Br)ccc1NC(=O)CCN1CCOCC1` (stereo unspecified), the concentration giving a half-maximal response (EC50) in assay [3] was 6.7 µM (active); in assay [4] it was > 60 µM (not active). Regarding `Cc1ccc(-n2nc3c(=O)n(CCCC(=O)N4CCC(C(N)=O)CC4)nc(C)c3c2C)cc1`, the EC50 in assay [2] is > 195 µM (not active). Take `COc1ccc(/C=C(\C#N)C(=O)Nc2cccc(C)n2)cc1`: in assay [1], the EC50 was 165 µM (active). In the case of `CCOC(=O)c1c(NC(C)=O)sc2c(OCCN(CC)CC)c(Br)ccc12`, the EC50 is 1.58 µM (active) in assay [3] and > 60 µM (not active) in assay [4]. With `Cn1c(N)c(C(=O)Nc2ccc(-c3ccccc3)cc2)sc1=S`, the EC50 in assay [2] is on record as > 195 µM (not active).

In the case of `COc1cc(OC)cc(C(=O)Nc2nc(-c3ccccc3)c(-c3ccccc3)o2)c1`, the EC50 is 0.617 µM (active) in assay [5] and 1.34 µM (active) in the assay with Streptococcus. As for `COCc1cc(CN2CCN(CCc3ccccc3)C(CCO)C2)ccc1OC` (stereo unspecified), the EC50 in assay [1] was > 260 µM (inactive). Turning to `O=C1CC(c2ccc(Cl)cc2)n2nc(NS(=O)(=O)c3ccc(F)cc3)nc2N1` (stereo unspecified), the EC50 in assay [1] was > 260 µM (inactive). For the molecule `O=C(Cc1ccccc1)Oc1ccccc1N1C(=O)CCC1=O`, the concentration for a half-maximal effect (EC50) in assay [2] is on record as > 195 µM (not active). On the same count and under the same terms, the value for `CCOc1ccc(/C=C2\SC(=O)N(CCNC(=O)C3COc4ccccc4O3)C2=O)cc1OC` (stereo unspecified) was > 195 µM (not active). Consider `COc1ccccc1C(=O)C1CCCN(Cc2c[nH]nc2C2CCCCC2)C1` (stereo unspecified), for which the EC50 in assay [3] was 0.604 µM (active); in assay [4] it was > 60 µM (not active). `CCN(CC)c1ccc(/C=C2/C(=O)N(c3ccc([N+](=O)[O-])cc3)N=C2N2CCOCC2)cc1`: the EC50 in assay [1] is > 260 µM (inactive).

Regarding `C=CCC(C(=O)OC)(C(=O)OC)c1ccc([N+](=O)[O-])cc1[N+](=O)[O-]`, the concentration for a half-maximal effect (EC50) in assay [3] is 2.42 µM (active); in assay [4], > 60 µM (not active). Taken in the same sequence, the figures for `COCCN(Cc1c[nH]nc1-c1ccc2cc(OC)ccc2c1)C(C)C` were 1.56 µM (active) and > 60 µM (not active).

Turning to `Cc1ccc(OCC(=O)c2cc(C)n(-c3ccccc3)c2C)c([N+](=O)[O-])n1`, the EC50 in assay [2] was 0.623 µM (active). As to `COc1ccc(OC)c(Nc2nc3ccc(C)cc3n3cnnc23)c1`, the EC50 in assay [1] is > 260 µM (inactive). For `Cc1ccc(C(=O)NCCc2nc3ccccc3[nH]2)cc1[N+](=O)[O-]`, the results for the EC50 in assay [3] and in assay [4] were 1.03 µM (active) and > 60 µM (inconclusive), respectively.

For `O=C(NCc1ccccn1)c1cc(-c2ccc(-c3ccccc3)cc2)nc2ccccc12`, the EC50 in assay [1] is 0.461 µM (active). In the case of `CN(C)C(CNC(=O)CCC(=O)c1ccc(Br)cc1)c1ccccc1` (stereo unspecified), in assay [1], the EC50 is > 260 µM (inactive). In the case of `CCCCOc1ccc(CSC2=NCCN2)cc1[N+](=O)[O-]`, the EC50 is 0.46 µM (active) in assay [3] and > 30 µM (not active) in assay [4]. Consider `Cc1ccc(-n2nc(C)c3cc(C(=O)O)sc32)cc1`, for which the EC50 in assay [2] was > 195 µM (not active). On to `CN(C)S(=O)(=O)N1CCN(C(=O)N2CCCCC2)CC1`, for which the EC50 in assay [2] is given as > 195 µM (not active). For `O=[N+]([O-])c1ccc(Nc2ccc(F)cc2)cc1`, the EC50 in assay [2] is > 195 µM (not active). As to `O=C(c1ccc(-n2cncn2)c([N+](=O)[O-])c1)N1CCN(S(=O)(=O)c2ccccc2F)CC1`, in assay [2], the EC50 is recorded as > 195 µM (not active). Take `CCN(C(=O)c1cc2c(O)nc3ccc(C)cc3c2s1)c1ccccc1F`: the EC50 in assay [1] is > 260 µM (inactive).

As for `Cc1cccc(C(=O)NNC(=O)CCn2nnc3ccccc32)c1`, the EC50 in assay [1] is > 260 µM (inactive).

Turning to `CS/C(=N\C#N)N1CCN(c2ccc(Cl)cc2)CC1`, in assay [1], the EC50 is 129 µM (active). `C/C(CC(=O)Nc1cccc2c1CCCC2)=N\NC(=O)COc1ccccc1`: the EC50 in assay [1] is > 260 µM (inactive). For the molecule `Cc1nc2c(cc1C(=O)N/N=C/c1ccc(O)c(O)c1)c(=O)n(C)c(=O)n2C`, in assay [2], the concentration for a half-maximal effect (EC50) is > 195 µM (not active).

In the case of `C/C(=N\NC(=O)C(N)=O)c1ccc(O)cc1O`, the EC50 in assay [2] is given as > 195 µM (not active). For the molecule `O=C(N/N=C/c1ccc(-c2ccc(Br)cc2)o1)c1ccc2c(c1)OCO2`, the EC50 was 1.47 µM (active) in assay [3] and > 60 µM (inconclusive) in assay [4]. With `CC(/C=N\NC(=O)c1cc(C)oc1C)=C\c1ccccc1`, the concentration for a half-maximal effect (EC50) in assay [2] is given as > 195 µM (not active).
